Measurements as given in US6895396B2, “Neural network methods to predict enzyme inhibitor or receptor ligand potency” (Albert Einstein College of Medicine of Yeshiva University, priority 1998, dated 2005).
Each block holds one molecule with its values, some of them ahead of it.

Tests used:
[1] = target: T1, adenosine deaminase (Homo sapiens, UniProt P00813); assay: Adenosine deaminase binding free energy, experimental; settings: for ΔG/RT (experimental): binding free energy, dimensionless
T1 sequence (P00813 1-363): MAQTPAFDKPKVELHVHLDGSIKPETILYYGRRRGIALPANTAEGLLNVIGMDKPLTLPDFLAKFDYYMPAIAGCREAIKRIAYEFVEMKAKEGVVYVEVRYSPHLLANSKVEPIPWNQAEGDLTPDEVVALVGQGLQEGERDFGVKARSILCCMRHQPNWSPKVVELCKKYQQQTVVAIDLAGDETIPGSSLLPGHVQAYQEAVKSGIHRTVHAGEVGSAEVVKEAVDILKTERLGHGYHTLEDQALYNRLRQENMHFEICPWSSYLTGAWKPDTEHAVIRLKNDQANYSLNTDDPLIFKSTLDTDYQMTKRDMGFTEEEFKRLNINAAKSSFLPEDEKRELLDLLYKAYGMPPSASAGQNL

[2] = target: cytidine deaminase (Escherichia coli, UniProt P0ABF6); settings: binding free energy from the literature; cited from earlier work
Sequence of cytidine deaminase (P0ABF6 whole entry): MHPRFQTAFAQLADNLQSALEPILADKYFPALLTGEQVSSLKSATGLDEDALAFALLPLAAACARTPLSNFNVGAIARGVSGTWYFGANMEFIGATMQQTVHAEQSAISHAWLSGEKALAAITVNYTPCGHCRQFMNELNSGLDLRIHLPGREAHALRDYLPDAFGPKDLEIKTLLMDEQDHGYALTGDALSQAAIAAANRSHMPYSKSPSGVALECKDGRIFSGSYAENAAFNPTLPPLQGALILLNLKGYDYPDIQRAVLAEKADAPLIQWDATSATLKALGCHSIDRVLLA

[3] = tested on: AMP nucleosidase; settings: binding free energy, dimensionless

inhibitor quality in words [1]: not a good inhibitor | ΔG/RT (experimental) [1]: −12
Molecule: OC[C@H]1O[C@@H](n2cnc3c2N=CNC3)[C@H](O)[C@@H]1O [1,6-dihydropurine ribonucleoside]

Molecule: O=C1NCC=CN1[C@@H]1O[C@H](CO)[C@@H](O)[C@H]1O [3,4-dihydrozebularine]
ΔG/RT (experimental) [2]: −10

Molecule: NC1=NC(=O)N([C@@H]2O[C@H](CO)[C@@H](O)[C@H]2O)CC1 [5,6-dihydrocytidine]
ΔG/RT (experimental) [2]: −9.1

Molecule: Nc1ncnc2c1ncn2[C@@H]1O[C@H](COP(=O)(O)O)[C@@H](O)[C@H]1O [AMP]
ΔG/RT (experimental) [3]: −9.0

ΔG/RT (experimental) [1]: −10
Molecule: Nc1ncnc2c1ncn2[C@@H]1O[C@H](CO)[C@@H](O)[C@H]1O [adenosine]

Molecule: Nc1ccn([C@@H]2O[C@H](CO)[C@@H](O)[C@H]2O)c(=O)n1 [cytidine]
ΔG/RT (experimental) [2]: −9.9

Molecule: Nc1ncnc2c([C@@H]3O[C@H](CO)[C@@H](O)[C@H]3O)[nH]nc12 [formycin]
ΔG/RT (experimental) [3]: −17

Molecule: O=C1NC(O)C(Cl)=CN1[C@@H]1O[C@H](CO)[C@@H](O)[C@H]1O (some centres unmarked) [hydrated 5-chloro-pyrimidine-2-one ribonucleoside]
ΔG/RT (experimental) [2]: −19

Molecule: O=C1NC(O)C(F)=CN1[C@@H]1O[C@H](CO)[C@@H](O)[C@H]1O (some centres unmarked) [hydrated 5-fluoro-pyrimidine-2-one ribonucleoside]
ΔG/RT (experimental) [2]: −24

ΔG/RT (experimental) [1]: −29
Molecule: OC[C@H]1O[C@@H](n2cnc3c2NC=N[C@@H]3O)[C@H](O)[C@@H]1O [hydrated purine ribonucleoside]

Molecule: Nc1ncnc2c1ccn2[C@@H]1O[C@H](CO)[C@@H](O)[C@H]1O [tubercidin]
ΔG/RT (experimental) [3]: −9.9

Molecule: O=c1ccn([C@@H]2O[C@H](CO)[C@@H](O)[C@H]2O)c(=O)[nH]1 [uridine]
ΔG/RT (experimental) [2]: −6.0

ΔG/RT (experimental) [1]: −25
Molecule: (R)-coformycin

Molecule: aminopyrazolo pyrimidine ribonucleotide
ΔG/RT (experimental) [3]: −12

Molecule: hydrated 5-bromo-pyrimidine-2-one ribonucleoside
ΔG/RT (experimental) [2]: −18

Molecule: hydrated pyrimidine-2-one ribonucleoside
ΔG/RT (experimental) [2]: −27
